Test results published in PubChem BioAssay (NCI).
Several values for one entry are separate records, joined by “and”; a condition that tells them apart may be missing. Equal values may be shown once.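 1) Cells in 96-well plates. 2) Compound, 48 h, 5 concentrations. 3) Linear interpolation between surrounding doses. 4) Unreached endpoint = highest concentration. The concentration for 50% growth inhibition is given as GI50. TGI: total growth inhibition.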

Key:
Test in all cases: DTP human tumour cell line panel, 48 h
HOP-92 NSCLC = system: HOP-92 NSCLC
SK-MEL-5 melanoma = system: SK-MEL-5 melanoma
MCF7 breast = system: MCF7 breast
NCI-H226 lung = system: NCI-H226 lung
OVCAR-8 ovarian = system: OVCAR-8 ovarian
ACHN renal = system: ACHN renal
786-0 renal = system: 786-0 renal
SK-MEL-2 melanoma = system: SK-MEL-2 melanoma

Row | Structure (SMILES) | GI50 (HOP-92 NSCLC) [µM] | TGI (HOP-92 NSCLC) [µM] | GI50 (SK-MEL-5 melanoma) [µM] | TGI (SK-MEL-5 melanoma) | GI50 (MCF7 breast) [µM] | TGI (MCF7 breast) | GI50 (NCI-H226 lung) [µM] | TGI (NCI-H226 lung) [µM] | GI50 (OVCAR-8 ovarian) [µM] | TGI (OVCAR-8 ovarian) [µM] | GI50 (ACHN renal) [µM] | TGI (ACHN renal) [µM] | GI50 (786-0 renal) [µM] | TGI (786-0 renal) | GI50 (SK-MEL-2 melanoma) [µM] | TGI (SK-MEL-2 melanoma) [µM]
1 | CCCN1C(=O)N(CCC)C2C1NC(=S)N2/N=C/C=C/c1ccccc1OC (stereo unspecified) | 0.624 | > 100 | 0.516 | 15.9 µM | 0.39 | > 100 µM | 4.17 | > 43.9 | 1.56 | > 62.6 | 0.631 | 81.1 | 0.779 | > 68.8 µM | 2.08 | > 63.4
2 | Oc1cccnc1[Se] | – | > 100 | – | > 100 µM | – | > 100 µM | – | > 100 | – | > 100 | – | > 100 | – | 31.7 µM | – | > 100
3 | CCn1c2ccccc2c2cc(NC(=O)Nc3ccc([N+](=O)[O-])cc3C)ccc21 | 1.27 | 4.64 | 14.3 | > 100 µM | 3.7 | > 100 µM | 4.4 | 29.2 | 4.61 | 37.7 | 3.56 | 14.9 | 4.61 | 84.9 µM | 3.33 | 15.4
4 | O=C(CSc1nc2ccccc2nc1-c1ccccc1)Nc1ccc(F)cc1 | 20.3 | 58.1 | 16.5 | 54.8 µM | 57.2 | > 100 µM | > 100 | > 100 | 30 | > 100 | 41.9 | > 100 | 49.2 | > 100 µM | 73.5 | > 100
5 | COc1cc(-c2cc(-c3cc4c([nH]c5ccccc54)c(-c4cc(OC)c(OC)c(OC)c4)n3)cc(-c3ccccc3)n2)cc(OC)c1OC | 1.45 | 6.25 | 2.46 | 7.61 µM | 3.56 | 20.8 µM | 7.56 | > 100 | 4.01 | 43.4 | 4.57 | > 100 | 7.15 | > 100 µM | 2.58 | 6.36
6 | NCCNc1c2c(c(NCCN)c3[nH]ccc13)C(=O)c1ccccc1C2=O | 0.427 | 4.21 | 0.178 | 0.808 µM | 0.029 | 0.323 µM | 0.198 | 0.896 | 0.151 | 0.612 | 0.124 | 0.706 | 0.224 | 1.04 µM | 0.785 | 2.41
7 | O=C(O)Cc1cc(Cl)ccc1O | – | > 100 | – | > 100 µM | – | > 100 µM | – | > 100 | – | > 100 | – | > 100 | – | > 100 µM | – | > 100
8 | COc1ccc(Nc2nnc(-c3cc(O)ccc3O)s2)cc1 | – | – | 10.3 | 27.2 µM | 11.4 | 35.4 µM | 11 | 39.9 | 30.4 | > 50 | > 50 | > 50 | > 50 | > 50 µM | 23.1 | > 50
9 | COc1ccc2[nH]cc(C3(c4c[nH]c5ccc(OC)cc45)C(=O)Nc4ccc(F)cc43)c2c1 | 2.39 | 9.24 | 1.98 | 4.77 µM | 2.72 | 10.1 µM | 2.58 | 12 | 2.75 | 9.67 | 2.93 | 10.1 | 3.39 | 12.5 µM | 2.34 | 5.02
10 | C=C(Cl)C(Br)(CCl)CCC(Br)C(C)(C)Cl (stereo unspecified) | – | – | – | 6.96 µM and 6.1 µM | 4.08 | 7.13 µM and 15.6 µM | 1.91 | 5.22 | 2.26 | 5.69 | 3.94 | 9.71 | 1.67 | 3.73 µM and 3.21 µM | 3.14 | 7.42
11 | COc1ccc(-c2nn(-c3ccc(NC(=O)c4ccc(Cl)c(Cl)c4)cc3)cc2-c2ccncc2)cc1Cl | 7.65 | > 50 | 1.91 | > 50 µM | 2.97 | > 50 µM | > 28.2 | > 50 | > 25.8 | > 50 | > 13.2 | > 50 | 1.01 | 2.53 µM | – | –
12 | Nc1c(C(=O)Nc2ccncc2)sc2nc3c(cc12)CCCCCCCC3 | 0.761 | 1.49 | 0.831 | 1.52 µM | 0.886 | 1.75 µM | 0.919 | 2.03 | 1.54 | 50 | 0.889 | 1.6 | 0.93 | 1.66 µM | 0.975 | 1.79
13 | CCSc1ncnc2c1ncn2C1OC(CO)C(O)C1O (stereo unspecified) | 1.98 | 12.2 | 2.83 | > 100 µM | 0.288 | > 91.2 µM | 0.845 | > 100 | 0.296 | 16 | 0.425 | > 100 | 0.449 | > 100 µM | 24.1 | > 100
14 | O=C1/C(=C/c2cccc(Cl)c2Cl)N=C(c2ccccc2)N1C1CC1 | – | – | 11.4 | 24.7 µM | 7.98 | 19.2 µM | 9.54 | 23.2 | 26.5 | > 50 | 16.7 | > 50 | 7.29 | 14.4 µM | 18.5 | > 50
15 | COc1ccc2c(c1)C(=O)c1c-2c(N2CCN(C(=O)CNCCNCCO)CC2)nc2ccccc12 | 2.47 | 9.68 | 13.3 | 27.5 µM | 1.75 | 3.5 µM | 10.9 | 29.5 | 10.2 | 33.8 | 11 | 24.9 | 1.77 | 3.34 µM | 2.2 | 4
16 | C=CCCCCOc1ccccc1-c1cnc(OCCCCC=C)n1C | 1.81 | 19.7 | 3.69 | 13.7 µM | 2.89 | 11.6 µM | 13 | 28.5 | 4.23 | 17.2 | 6.8 | 38.9 | 5.29 | 21.3 µM | 2.56 | 5.88
